The subject of assay [1] is C. acnes ribotype 5 (strain HL043PA1). Description: Minimum inhibitory concentration (MIC) against C. acnes. It is filed as cell-based. Particulars: Cutibacterium acnes; C. acnes ribotype 5 strain HL043PA1, 72 h incubation, OD600, growth inhibited by more than 90%. Here is the method: The minimum inhibitory concentrations (MICs) of CA-SA and magnolol against C. acnes were measured and compared with an antibiotic (clindamycin) and non-antibiotic agents (benzoyl peroxide and salicylic acid).
C. acnes ribotype 5 (strain HL043PA1) was cultured in a reinforced Clostridial broth medium (BD Diagnostics, Franklin Lakes, NJ) in an anaerobic environment (37° C., 175 rpm). Thereafter, each sample was dissolved in water or dimethyl sulfoxide (DMSO) and serially diluted two-fold, and 7.5 μL of the resulting solution was added to 142.5 μL of a bacterial suspension containing 7.5×10^5 CFU/mL, and incubated for 72 h. Thereafter, turbidity (OD600) was measured (Synergy 2 Multi-Mode Microplate Reader (BioTek Instrument, Winooski, VT)) to determine the MIC that inhibited bacterial growth by more than 90%.

For the next assay, the system named is MMP-1. Description: Inhibition of MMP-1 expression induced by C. acnes lysate in HaCaT cells (ELISA). It is filed as cell-based, human. The note with it: magnolol 4 μg/ml, 4 h pretreatment, C. acnes lysate 30 min, vs positive control. Here is the method:
(§1) A human epidermal keratinocyte cell line (HaCaT cells) was sub-cultured at 37° C. in a humidified atmosphere containing 5% CO2 and 95% air. The medium used was DMEM containing 10% FBS (Gibco; Thermo Fisher, Waltham MA), penicillin (100 U/ml, Gibco), and streptomycin ([…], Gibco). Separately, the acne pathogen C. acnes ribotype 5 (Strain HL043PA1) (1.36×10^9 CFU/ml, OD=1.7) was cultured to prepare a C. acnes lysate. The C. acnes lysate was used to induce the expression of MMP-1 and VEGF in HaCaT cells.
(§2) Thereafter, the C. acnes lysate and the medium were mixed at a mass ratio of 3:7, and the resulting mixture was applied to HaCaT cells for 30 minutes. The supernatant was collected, and the concentrations of MMP-1 and VEGF were measured by enzyme-linked immunosorbent assay (ELISA) (R&D Systems Inc., Minneapolis, MN) using the manufacturer's protocol. […] The experimental group treated only with the C. acnes lysate was set as the positive control group, and the reduction value of the sample treatment group compared to the positive control group was calculated and is shown in Table 3. […]
(§3) Colby Equation: E=(A+B)−(A*B/100); E: predicted value; A: efficacy of active ingredient A; B: efficacy of active ingredient B. When the actual measurement value is greater than the predicted value, it is determined that there is a synergistic effect.

The subject of a further assay is stratum corneum (SC). The assay can be described thus: Stratum corneum softening, tape stripping test on volunteer's skin. The note with it: magnolol 0.2 mg/ml, 50 μl solution on skin for 3 h, SC protein increase relative to control. It is filed as in vivo, human. Here is the method: To evaluate the softening efficacy on the stratum corneum (SC) of CA-SA and magnolol, a tape stripping test was performed on the SC.
After marking an application site on a volunteer's skin in advance, 50 μl of a solution including CA-SA and/or magnolol at the concentration shown in Table 4 was applied, and after three hours the skin surface was wiped to remove any remaining substances. A solution that included none of the evaluated substances was used as a control. A D-squame adhesive tape disk (CuDerm, Dallas, TX) was attached to the test site, and a cylindrical weight was used to apply a pressure of 150 g/cm^2 for three seconds, and then the pressure was removed and the tape was removed from the skin. Three tape strips were obtained from each marked site.
After collecting the tape strips in a polystyrene petri dish (Thermo Fisher), in order to perform keratinolysis quantification, 1 ml of 1 M NaOH was added to each petri dish and the dish was shaken for two hours. Thereafter, 75 μl of the solution was transferred to three wells (96-well plate, Corning), and each was neutralized with an equivalent volume of 1 M HCl. […] After 15 minutes, the optical density at 595 nm (OD 595 nm) was measured using an empty well as a correction value, and the amount of SC protein was quantified using a γ-globulin standard (Bio-Rad). […]

For assay [2], the system named is erythema induced by 1% sodium dodecyl sulfate (SDS). Description: Skin erythema recovery after SDS erythema induction (Mexameter erythema index). It is filed as in vivo, human. Particulars: emulsion with magnolol 0.02% by weight, twice a day for 12 days, forearm, vs vehicle application group. Here is the method: To evaluate the erythema recovery efficacy, an erythema index was evaluated before erythema induction, after erythema induction, and 12 days after product use in nine volunteers aged 25 to 35 years. Erythema was induced by applying 1% sodium dodecyl sulfate (SDS) dilution to the forearm for 24 hours, and an emulsion comprising CA-SA 5% by weight of, an emulsion comprising magnolol 0.02% by weight of, an emulsion comprising 5% CA-SA and 0.02% magnolol by weight, and an emulsion containing neither CA-SA nor magnolol (vehicle) was repeatedly applied to the same area twice a day, in the morning and evening, for 12 days.
The erythema index was measured using a Mexameter (MX 18, Courage+Khazaka electronic GmbH, Germany). The erythema index recovery rate was calculated using the following formula, and the effect was compared in terms of the percentage value increase in the erythema index recovery rate of the emulsion application group including each sample relative to the erythema index recovery rate of the vehicle application group (relative recovery rate).
In order to confirm the synergistic effect of CA-SA and magnolol, the predicted values (Colby values) and the actual measurement values were compared using the Colby Equation in the same manner as in Experimental Example 3, and the results are shown in Table 5.

A further assay has as its system VEGF. The assay can be described thus: Inhibition of VEGF expression induced by C. acnes lysate in HaCaT cells (ELISA). Particulars: magnolol 4 μg/ml, 4 h pretreatment, C. acnes lysate 30 min, vs positive control. It is filed as cell-based, human. Here is the method:
as §1, §2, §3

The next assay concerns SZ95 cells. Description: Lipid production inhibition in testosterone-treated SZ95 cells (Nile red). It is filed as cell-based. The note with it: magnolol 0.5 μg/ml, 48 h, vs positive control. Here is the method: It was evaluated whether CA-SA and/or magnolol could control sebum secretion by inhibiting lipid production.
SZ95 cells, which are […] sebaceous cells, were cultured and maintained in a humidified atmosphere containing 5% CO2 and 95% air at 37° C. The medium used was Dulbecco's Modified Eagle Medium (DMEM)/Ham's F12 medium (Gibco) supplemented with 10% fetal bovine serum (FBS) and 5 ng/ml recombinant human epidermal growth factor (Invitrogen; Thermo Fisher, Waltham MA). After performing sub-confluent culture, cells were harvested with 0.05% trypsin-ethylenediaminetetraacetic acid (EDTA) (Gibco) and passaged, and cells obtained from the second passage were used.
The cells were seeded at 1×10^5 cells per well in a 24-well plate (Greiner, Frickenhausen, Germany) and cultured at 37° C. and 5% CO2 for 24 h. Thereafter, the cells were treated with 2×10^−8 M testosterone for 24 h to stimulate lipid production. […]
The well plate was covered with aluminum foil to block light, and fluorescence was measured at Ex/Em=550/580 nm using a microplate reader (BioTek Instruments, Inc.). The percentage value of the absolute fluorescence unit compared to the negative control group was used as the result value. Thereafter, the reduction value of the sample treatment group compared to the positive control group was calculated and is shown in Table 2.

Take `O=C(OOC(=O)c1ccccc1)c1ccccc1` [Benzoyl peroxide, benzoyl peroxide]: the MIC in assay [1] is 2500 µg/mL.
Regarding `CCC[C@@H]1C[C@@H](C(=O)N[C@@H]([C@H]2O[C@H](SC)[C@H](O)[C@@H](O)[C@H]2O)[C@H](C)Cl)N(C)C1` [Clindamycin, clindamycin], the minimal inhibitory concentration (MIC) in assay [1] worked out at 156 µg/mL.
As for `C=CCc1ccc(O)c(-c2cc(CC=C)ccc2O)c1` [Magnolol, magnolol], the MMP-1 reduction value with MMP-1 stood at 33.6%. Besides, the SC exfoliation rate in the assay with stratum corneum (SC) is given as −22.3%. Further, in assay [2], the “Relative recovery rate (erythema index)” value is listed as 16.2%. Further, the VEGF reduction value with VEGF was found to be 21.2%. The “Reduction value (lipid production)” value in the assay on SZ95 cells was determined as 3.8%.
As for `O=C(O)c1ccccc1O` [Salicylic acid, salicylic acid], the MIC in assay [1] fell in the range of 4000 to 8000 µg/mL.

The record behind these values is patent US20260207629A1, “COMPOSITION FOR IMPROVING SKIN COMPRISING CARNITINESALICYLATE AS AN ACTIVE INGREDIENT” (LG H&H CO., LTD., priority 2022, published 2026).
